According to ChEMBL document CHEMBL3734745, “Synthesis of six mexiletine derivatives with isoindolines attached as potential antioxidants and their evaluation as cardioprotective agents” (Medchemcomm, 2015):
Activity calls are given as the source filed them. The calls are words filed in the database; no cut-off is given here.

Experiments:
[1] = test system: RAW264.7; assay: Cytotoxicity against mouse RAW264.7 cells assessed as cell viability at 100 uM by MTS assay; type: cell-based; conditions: raw264.7, 100 µM
[2] = test system: Aorta; assay: Antioxidant activity in NADPH stimulated Sprague-Dawley rat aorta assessed as reduction in photon emission at 10 uM incubated for 45 mins by lucigenin-enhanced chemiluminescence assay; type: functional, tissue-based
[3] = test system: Erythrocyte; assay: Antioxidant activity in C57Bl/6 mouse erythrocyte assessed as increase in AAPH-induced hemolysis time incubated for 30 mins by spectrophotometry; type: functional, cell-based
[4] = species: Cavia porcellus; assay: Effect on papillary muscle refractory period in Guinea pig at 100 uM by electrogram; type: functional, tissue-based
[5] = Toxicity in rat H9c2(2-1) cells assessed as cell death at 10 uM incubated for 12 hrs under hypoxic simulated ischemia by propidium iodide exclusion assay; type: cell-based
[6] = test system: Right cardiac atrium; assay: Reduction in resting atrial rate in Guinea pig right atria at 100 uM by electrogram (reference value: 175 to 200 bpm); type: functional
[7] = species: Rattus norvegicus; assay: (§1) Cardio-protective anti-ischemic activity in rat H9c2(2-1) cells assessed as reduction in cell death at 5 uM incubated for 12 hrs under hypoxic simulated ischemia by propidium iodide exclusion assay; type: functional
[8] = test system: Right cardiac atrium; assay: Increase in absolute refractory period in Guinea pig right atria at 100 uM incubated for 30 mins by electrogram; type: functional; conditions: Cavia porcellus
[9] = test system: RAW264.7; assay: Antioxidant activity in phorbol 12,13-dibutyrate stimulated mouse RAW264.7 cells assessed as inhibition of ROS generation by measuring the reduction in photon emission at 100 uM incubated for 60 mins by L-012-enhanced chemiluminescence assay relative to control; type: functional
[10] = as §1; type: functional; set-up: scale not given: the % may be the effect or the level left

Row | Structure (SMILES) | Activity [1] | Activity [2] | Activity [3] | Activity [4] | Activity [5] | Activity ([6]; Cavia porcellus) | Activity [7] | Activity [8] | Activity [9] | Activity [6] [bpm] | Activity [10] [%]
1 | CC1(C)c2ccccc2C(C)(C)N1[O] | Non-toxic | inactive | inactive | – | – | – | – | – | – | – | –
2 | CC(COc1c(Cl)cccc1Cl)NCc1ccc2c(c1)C(C)(C)N([O])C2(C)C (stereo not drawn) | Non-toxic | – | – | inactive | Toxic | Active | Active | inactive | – | – | –
3 | CC(COc1c(Cl)cccc1Cl)NCc1ccc2c(c1)C(C)(C)N(O)C2(C)C (stereo not drawn) | Non-toxic | – | – | – | – | – | – | – | – | – | –
4 | CC1(C)NC(C)(C)c2ccccc21 | Non-toxic | inactive | inactive | – | – | – | – | – | – | – | –
5 | Cc1cccc(C)c1OCC(C)NCc1ccc2c(c1)C(C)(C)N(O)C2(C)C (stereo not drawn) | – | – | – | inactive | Toxic | Active | Active | Active | inactive | – | –
6 | Cc1cccc(C)c1OCC(C)NCc1ccc2c(c1)C(C)(C)N([O])C2(C)C (stereo not drawn) | – | – | – | inactive | – | Active | – | Active | inactive | – | –
7 | CC1(C)c2ccccc2C(C)(C)N1O | Non-toxic | inactive | inactive | – | – | – | – | – | – | – | –
8 | Cc1cccc(C)c1OCC(C)N (stereo not drawn) [MEXILETINE] | – | inactive | inactive | Active | – | – | inactive | Active | inactive | 15 | –
9 | Cc1cccc(C)c1OCC(C)NCc1ccc2c(c1)C(C)(C)NC2(C)C (stereo not drawn) | – | – | – | inactive | Toxic | Active | – | Active | inactive | – | 55
10 | CC(N)COc1c(Cl)cccc1Cl (stereo not drawn) | – | – | – | inactive | – | – | – | Active | – | 15 | –
11 | CC(COc1c(Cl)cccc1Cl)NCc1ccc2c(c1)C(C)(C)NC2(C)C (stereo not drawn) | Non-toxic | – | – | – | – | – | – | – | – | – | –
